Reference: patent publication US20180153995A1, “USE OF ANTIMICROBIAL POLYMERS FOR RE-SENSITIZATION OF MICROORGANISMS UPON EMERGENCE OF RESISTANCE TO ANTI-MICROBIAL AGENTS” (Technion Research & Development Foundation Limited, priority 2008, published 2018)
Converted amounts (≈) assume the structure as drawn. Read-outs that look alike come from different tables or passages of the source.

What was measured:
[1] = system: MRSA 15852; assay type: cell-based, Staphylococcus aureus; settings: S. aureus 15852
Procedure: (§1) The fractionary inhibitory (FIC) concentration index for combinations of two antimicrobial agents was calculated as follows: FIC index=FICA+FICB=A/MICA+B/MICB where A and B are the MIC values of agent A and agent B in the combination, MICA and MICB are the MICs of agent A and agent B alone, and FICA and FICB are the FICs of agent A and agent B.
(§2) The FIC indexes were interpreted as follows: less than 0.5 indicates a clear re-sensitizing effect; from 0.5 to 4 indicates a marginal or null re-sensitizing effect; and over 4 indicates antagonism.

[2] = system: ATCC 25923; assay: microbe, parasite or virus in culture; assay type: cell-based, Staphylococcus aureus; settings: Staphylococcus aureus, ATCC25923; read-out: MIC
Procedure: (§3) MICs were determined by microdilution susceptibility testing in 96-well plates (by Nunc) using inocula of 10^5 bacteria per ml. Cell populations were evaluated by optical density measurements at 620 nm and were calibrated against a set of standards. Hundred (100) μl of a bacterial suspension were added to 100 μl of culture medium (control) or to 100 μl of culture medium containing various polymer concentrations in 2-fold serial dilutions. Inhibition of proliferation was determined by optical density measurements at 620 nm after an incubation period of 24 hours at 37° C.

[3] = system: ATCC 29213; assay: microbe, parasite or virus in culture; assay type: cell-based, Staphylococcus aureus; settings: Staphylococcus aureus, ATCC29213; read-out: MIC
Procedure: as §3, §1, §2

[4] = system: MRSA 15918; assay: microbe, parasite or virus in culture; assay type: cell-based, Staphylococcus aureus; settings: Staphylococcus aureus, MRSA; read-out: MIC
Procedure: as §3, §1, §2

[5] = system: S. aureus 43300; assay: Antibiotic MIC by microdilution with or without sub-MIC polymer; assay type: cell-based, Staphylococcus aureus
Procedure: as §3
Table 8 below presents the MIC values of antibiotics in presence or absence of C12(5-ene)KKNC12KNH2 (SEQ ID NO: 2) at sub-MIC levels of the polymer, as measured for the S. aureus strains 43300 (ATCC), 15819 (clinical isolate), 15877 (clinical isolate) and 15852 (clinical isolate). MICs were determined by microdilution susceptibility testing in 96-well plates (Nunc) using inocula of 10^5 bacteria per ml. One hundred (100) μl of a bacterial suspension were added to 100 μl of culture medium (control) or to 100 μl of culture medium containing various antibiotic and C12(5-ene)KKNC12KNH2 (SEQ ID NO: 2) concentrations in 2-fold serial dilutions. Inhibition of proliferation was determined by optical density measurements at 620 nm after an incubation period of 24 hours at 37° C.
(§4) 100 μl of a bacterial suspension were added to 100 μl of culture medium (control) or to 100 μl of culture medium containing various antibiotic and C14(9-ene)KKNC12KNH2 (SEQ ID NO: 5) concentrations in 2-fold serial dilutions. Inhibition of proliferation was determined by optical density measurements at 620 nm after an incubation period of 24 hours at 37° C.

[6] = system: P. aeruginosa 8732; assay: as above; assay type: cell-based, Pseudomonas aeruginosa
Procedure: as §3
Inhibition of proliferation was determined by optical density measurements at 620 nm after an incubation period of 24 hours at 37° C.

[7] = system: E. coli AG100; assay: Antibiotic MIC with or without sub-MIC polymer (Tables 20, 21); assay type: cell-based, Escherichia coli; settings: for Antibiotic MIC in presence of C12K(NC8K)5NH2 (SEQ ID NO: 3), +½ MIC / Antibiotic MIC in presence of C12K(NC8K)7NH2 (SEQ ID NO: 4), +½ MIC: polymer at ½ of its MIC
[8] = system: E. coli AG100/ks; assay: as above; assay type: cell-based, Escherichia coli
[9] = system: S. aureus ATCC 29213; settings: as determined by the Clinical and Laboratory Standard Institute; cited from earlier work
[10] = system: P. mirabilis 1285; assay type: cell-based, Proteus mirabilis; settings: no polymer (None), Table 12
Procedure: as §3, §4

[11] = system: E. coli D21; assay: Antibiotic MIC with or without sub-MIC polymer (Tables 20, 21); assay type: cell-based, Escherichia coli
[12] = system: E. coli G11a1; assay: as above; assay type: cell-based, Escherichia coli
Procedure: as §3

[13] = system: P. mirabilis 1285; assay type: cell-based, Proteus mirabilis
[14] = +¼ MIC (1.6 μM) C14(9-ene)KKNC12KNH2
[15] = +½ MIC (3.12 μM) C12(5-ene)KKNC12KNH2
[16] = +½ MIC (3.12 μM) C14(9-ene)KKNC12KNH2
[17] = +⅓ MIC (2.1 μM) C14(9-ene)KKNC12KNH2
[18] = P. aeruginosa 8732, +½ MIC (3.12 μM) C16(9-ene)KKNC12KNH2
[19] = P. aeruginosa 8732, +⅓ MIC (2.1 μM) C16(9-ene)KKNC12KNH2
[20] = P. aeruginosa 8732, no polymer (None), Table 10

## Cc1onc(-c2ccccc2)c1C(=O)N[C@@H]1C(=O)N2[C@@H]1SC(C)(C)[C@@H]2C(=O)O [Oxacillin, oxacillin]
[1]; +¼ MIC (1.6 μM) C12KKNC12KNH2
  Antibiotic MIC: 256 µg/mL
[1]; +½ MIC (3.12 μM) C12KKNC12KNH2
  Antibiotic MIC: 256 µg/mL
[1]; +⅓ MIC (2.1 μM) C12KKNC12KNH2
  Antibiotic MIC: 256 µg/mL
[1]; no polymer (None), Table 11
  Antibiotic MIC: 256 µg/mL
[2]
  MIC: 0.17 µg/mL (≈ 0.423 µM)
[3]
  MIC: 0.09 µg/mL
[4]
  MIC: 64 µg/mL
[5]; [14]
  Antibiotic MIC: 0.25 to 0.5 µg/mL
[5]; [15]
  Antibiotic MIC: 0.06 µg/mL
[5]; [16]
  Antibiotic MIC: 0.25 µg/mL
[5]; [17]
  Antibiotic MIC: 0.25 µg/mL
[5]; no polymer (None), Table 8
  Antibiotic MIC: 0.5 to 1 µg/mL
[5]; no polymer (None), Table 9
  Antibiotic MIC: 0.5 µg/mL
[5]; no polymer (None), Table 10
  Antibiotic MIC: 0.5 to 1 µg/mL
[5]; no polymer (None), Table 11
  Antibiotic MIC: 0.5 µg/mL
[5]; no polymer (None), Table 12
  Antibiotic MIC: 0.5 µg/mL
[6]
  Antibiotic MIC: >512 µg/mL
[6]; [18]
  Antibiotic MIC: >512 µg/mL
[6]; [19]
  Antibiotic MIC: >512 µg/mL
[6]; [20]
  Antibiotic MIC: >512 µg/mL
[7]; antibiotic alone (Table 20)
  Antibiotic MIC, None: 512 µg/mL
[7]; antibiotic alone (Table 21)
  Antibiotic MIC, None: 512 µg/mL
[7]; polymer at ¼ of its MIC
  Antibiotic MIC in presence of C12K(NC8K)5NH2 (SEQ ID NO: 3), +¼ MIC: 256 µg/mL
[7]
  Antibiotic MIC in presence of C12K(NC8K)5NH2 (SEQ ID NO: 3), +½ MIC: 32 to 64 µg/mL
  Antibiotic MIC in presence of C12K(NC8K)7NH2 (SEQ ID NO: 4), +½ MIC: 32 to 64 µg/mL
[8]; antibiotic alone (Table 20)
  Antibiotic MIC, None: >512 µg/mL
[8]; antibiotic alone (Table 21)
  Antibiotic MIC, None: >512 µg/mL
[8]; polymer at ¼ of its MIC
  Antibiotic MIC in presence of C12K(NC8K)5NH2 (SEQ ID NO: 3), +¼ MIC: >512 µg/mL
  Antibiotic MIC in presence of C12K(NC8K)7NH2 (SEQ ID NO: 4), +¼ MIC: >512 µg/mL
[8]; polymer at ½ of its MIC
  Antibiotic MIC in presence of C12K(NC8K)5NH2 (SEQ ID NO: 3), +½ MIC: >512 µg/mL
  Antibiotic MIC in presence of C12K(NC8K)7NH2 (SEQ ID NO: 4), +½ MIC: >512 µg/mL
[8]; polymer at ⅓ of its MIC
  Antibiotic MIC in presence of C12K(NC8K)5NH2 (SEQ ID NO: 3), +⅓ MIC: >512 µg/mL
  Antibiotic MIC in presence of C12K(NC8K)7NH2 (SEQ ID NO: 4), +⅓ MIC: >512 µg/mL
[9]
  Oxacillin's MIC per CLSI M100-S15: 0.125 to 0.5 µg/mL

## CC1(C)S[C@@H]2[C@H](NC(=O)Cc3ccccc3)C(=O)N2[C@H]1C(=O)O [Penicillin G, penicillin G]
[1]; +¼ MIC (1.6 μM) C12(5-ene)KKNC12KNH2
  Antibiotic MIC: 32 µg/mL
[1]; +¼ MIC (1.6 μM) C12KKNC12KNH2
  Antibiotic MIC: 64 µg/mL
[1]; [15]
  Antibiotic MIC: 32 µg/mL
[1]; +½ MIC (3.12 μM) C12KKNC12KNH2
  Antibiotic MIC: 64 µg/mL
[1]; +⅓ MIC (2.1 μM) C12(5-ene)KKNC12KNH2
  Antibiotic MIC: 32 µg/mL
[1]; +⅓ MIC (2.1 μM) C12KKNC12KNH2
  Antibiotic MIC: 64 µg/mL
[1]; no polymer (None), Table 8
  Antibiotic MIC: 32 µg/mL
[1]; no polymer (None), Table 11
  Antibiotic MIC: 64 µg/mL
[5]; [14]
  Antibiotic MIC: 4 µg/mL
[5]; [15]
  Antibiotic MIC: 0.03 µg/mL
[5]; [16]
  Antibiotic MIC: 2 µg/mL
[5]; [17]
  Antibiotic MIC: 4 µg/mL
[5]; no polymer (None), Table 8
  Antibiotic MIC: 4 µg/mL
[5]; no polymer (None), Table 9
  Antibiotic MIC: 4 µg/mL
[5]; no polymer (None), Table 10
  Antibiotic MIC: 4 µg/mL
[5]; no polymer (None), Table 11
  Antibiotic MIC: 8 µg/mL
[5]; no polymer (None), Table 12
  Antibiotic MIC: 8 µg/mL
[6]
  Antibiotic MIC: 512 µg/mL
[6]; [18]
  Antibiotic MIC: 512 µg/mL
[6]; [19]
  Antibiotic MIC: 512 µg/mL
[6]; [20]
  Antibiotic MIC: 512 µg/mL
[10]
  Antibiotic MIC: 512 µg/mL
[7]; antibiotic alone (Table 20)
  Antibiotic MIC, None: 32 µg/mL
[7]; antibiotic alone (Table 21)
  Antibiotic MIC, None: 32 µg/mL
[7]; polymer at ¼ of its MIC
  Antibiotic MIC in presence of C12K(NC8K)5NH2 (SEQ ID NO: 3), +¼ MIC: 16 µg/mL
  Antibiotic MIC in presence of C12K(NC8K)7NH2 (SEQ ID NO: 4), +¼ MIC: 16 to 32 µg/mL
[7]
  Antibiotic MIC in presence of C12K(NC8K)5NH2 (SEQ ID NO: 3), +½ MIC: 8 µg/mL
  Antibiotic MIC in presence of C12K(NC8K)7NH2 (SEQ ID NO: 4), +½ MIC: 8 µg/mL
[7]; polymer at ⅓ of its MIC
  Antibiotic MIC in presence of C12K(NC8K)5NH2 (SEQ ID NO: 3), +⅓ MIC: 16 µg/mL
  Antibiotic MIC in presence of C12K(NC8K)7NH2 (SEQ ID NO: 4), +⅓ MIC: 8 to 16 µg/mL
[8]; antibiotic alone (Table 20)
  Antibiotic MIC, None: >512 µg/mL
[8]; antibiotic alone (Table 21)
  Antibiotic MIC, None: >512 µg/mL
[8]; polymer at ¼ of its MIC
  Antibiotic MIC in presence of C12K(NC8K)5NH2 (SEQ ID NO: 3), +¼ MIC: >512 µg/mL
[8]; polymer at ½ of its MIC
  Antibiotic MIC in presence of C12K(NC8K)5NH2 (SEQ ID NO: 3), +½ MIC: >512 µg/mL
[8]; polymer at ⅓ of its MIC
  Antibiotic MIC in presence of C12K(NC8K)5NH2 (SEQ ID NO: 3), +⅓ MIC: >512 µg/mL
[11]; antibiotic alone (Table 20)
  Antibiotic MIC, None: 512 µg/mL
[11]; antibiotic alone (Table 21)
  Antibiotic MIC, None: 512 µg/mL
[11]; polymer at ¼ of its MIC
  Antibiotic MIC in presence of C12K(NC8K)5NH2 (SEQ ID NO: 3), +¼ MIC: 512 µg/mL
  Antibiotic MIC in presence of C12K(NC8K)7NH2 (SEQ ID NO: 4), +¼ MIC: 512 µg/mL
[11]; polymer at ½ of its MIC
  Antibiotic MIC in presence of C12K(NC8K)5NH2 (SEQ ID NO: 3), +½ MIC: 256 µg/mL
  Antibiotic MIC in presence of C12K(NC8K)7NH2 (SEQ ID NO: 4), +½ MIC: 256 µg/mL
[11]; polymer at ⅓ of its MIC
  Antibiotic MIC in presence of C12K(NC8K)5NH2 (SEQ ID NO: 3), +⅓ MIC: 256 to 512 µg/mL
  Antibiotic MIC in presence of C12K(NC8K)7NH2 (SEQ ID NO: 4), +⅓ MIC: 512 µg/mL
[12]; antibiotic alone (Table 20)
  Antibiotic MIC, None: 512 µg/mL
[12]; antibiotic alone (Table 21)
  Antibiotic MIC, None: 512 µg/mL
[13]; +¼ MIC (1.6 μM) C12K(KNC12K)2NH2
  Antibiotic MIC: 512 µg/mL
[13]; +½ MIC (3.12 μM) C12K(KNC12K)2NH2
  Antibiotic MIC: 512 µg/mL
[13]; +⅓ MIC (2.1 μM) C12K(KNC12K)2NH2
  Antibiotic MIC: 512 µg/mL
